Literature values, collected in PMC11678425, “(-)-Syringaresinol Exerts an Antidepressant-like Activity in Mice by Noncompetitive Inhibition of the Serotonin Transporter” (Pharmaceuticals, 2024).

System: SERT
Conditions: cited from earlier work

| SMILES | inhibitory potency against SERT | mode of inhibition of SERT activity |
| --- | --- | --- |
| COc1cc(C2OCC3C(c4cc(OC)c(OC5OC(CO)C(O)C(O)C5OC5OCC(O)(CO)C5O)c(OC)c4)OCC23)cc(OC)c1O (single isomer, unassigned; (-)) [SAG, (-)-syringaresinol-4-O-D-apiofuranosyl-(1→2)-D-glucopyranoside] | a few micromolar range | noncompetitively inhibit |
| COc1cc(C2OCC3C(c4cc(OC)c(O[C@@H]5O[C@H](CO)[C@@H](O)[C@H](O)[C@H]5O)c(OC)c4)OCC23)cc(OC)c1O[C@@H]1O[C@H](CO)[C@@H](O)[C@H](O)[C@H]1O (single isomer, unassigned; (-)) [SBG, (-)-syringaresinol-4,4′-bis-O-β-D-glucopyranoside] | a few micromolar range | noncompetitively inhibit |
